{"source": "paper PMC3590912", "about": "(Journal of medicinal chemistry, 2012)", "key": {"[1]": {"assay": "In vitro metabolic stability in hepatic microsomes with NADPH", "settings": "for in vitro metabolic stability (in words): hepatic microsomes with NADPH, compared with 1"}, "[2]": {"test_system": "mice", "assay": "Urearetic activity: urine osmolality in mice under dDAVP stimulation", "assay_type": "in vivo, mouse", "settings": "400 μg intraperitoneal, dDAVP 1 h later, versus formulation alone"}, "[3]": {"assay": "Pharmacokinetics and renal accumulation in mice", "settings": "intraperitoneal bolus 400 μg, for many hours"}}, "data": [{"smiles": "O=S(=O)(c1ccc(C(F)(F)F)cc1)c1nnn2c1nc(NCc1cccs1)c1sccc12", "note": "[3c, Thiophen-2-ylmethyl-[3-(4-trifluoromethylbenzenesulfonyl)thieno[2,3-e][1,2,3]triazolo[1,5-a]pyrimidin-5-yl]amine]", "values": [{"measurement": "in vitro metabolic stability (in words)", "setting": "[1]", "value": "improved metabolic stability"}]}, {"smiles": "O=S(=O)(c1ccc(OC(F)(F)F)cc1)c1nnn2c1nc(NCc1cccs1)c1sccc12", "note": "[3d, Thiophen-2-ylmethyl-[3-(4-trifluoromethoxybenzenesulfonyl)thieno[2,3-e][1,2,3]triazolo-[1,5-a]pyrimidin-5-yl]amine]", "values": [{"measurement": "in vitro metabolic stability (in words)", "setting": "[1]", "value": "improved metabolic stability"}]}, {"smiles": "O=S(=O)(c1ccc(Br)cc1)c1nnn2c1nc(NCc1cccs1)c1sccc12", "note": "[3i, [3-(4-Bromobenzenesulfonyl)thieno[2,3-e][1,2,3]triazolo-[1,5-a]pyrimidin-5-yl]thiophen-2-ylmethylamine]", "values": [{"measurement": "in vitro metabolic stability (in words)", "setting": "[1]", "value": "improved metabolic stability"}]}, {"smiles": "CC(F)(F)c1ccc(S(=O)(=O)c2nnn3c2nc(NCc2cccs2)c2sccc23)cc1", "note": "[3k, [3-[4-(1,1-Difluoroethyl)benzenesulfonyl]thieno[2,3-e]-[1,2,3]triazolo[1,5-a]pyrimidin-5-yl]thiophen-2-ylmethylamine]", "values": [{"measurement": "reduction of urine osmolality", "setting": "[2]", "value": "~ 0.5 Osm/kg H2O"}, {"measurement": "3k concentration in blood, kidney and urine", "setting": "[3]", "value": "> 1", "unit": "µM"}, {"measurement": "improvement of in vitro metabolic stability compared to 1", "setting": "[1]", "value": "~ 40 fold"}]}]}
